From US12220419B2, “BCL-2 inhibitors” (Newave Pharmaceutical Inc., priority 2018, dated 2025)
Where a name gives a salt, the structure may show the parent alone. Read-outs that look alike come from different tables or passages of the source.

Columns and labels:
[1] = tested on: BCL-2-dependent acute lymphoblastic leukemia (ALL) cell line RS4;11; assay: In vitro anti-proliferation assay (ATPlite luminescence) in RS4;11; type: cell-based; settings: RS4;11 cells, about 72 hours, medium with 5% FBS or 10% normal human serum
Protocol: Cell antiproliferation was assayed by PerkinElmer ATPlite™ Luminescence Assay System. Briefly, the various test cancer cell lines were plated at a density of about 1×10^4 cells per well in Costar 96-well plates, and were incubated with different concentrations of compounds for about 72 hours in medium supplemented with 5% FBS or 10% normal human serum (NHS). One lyophilized substrate solution vial was then reconstituted by adding 5 mL of substrate buffer solution, and was agitated gently until the solution was homogeneous. About 50 μL of mammalian cell lysis solution was added to 100 μL of cell suspension per well of a microplate, and the plate was shaken for about five minutes in an orbital shaker at 700 rpm. This procedure was used to lyse the cells and to stabilize the ATP. Next, 50 μL substrate solution was added to the wells and microplate was shaken for five minutes in an orbital shaker at 700 rpm. Finally, the luminescence was measured by a PerkinElmer TopCount® Microplate Scintillation Counter. Such assays, carried out with a range of doses of test compounds, allowed the determination of the cellular anti-antiproliferative IC50 of the compounds of the present invention.

BCL-2 = BCL-2 (Homo sapiens (Human), UniProt P10415); assay: BCL-2 competition binding (fluorescence polarization) assay; settings: read-out: BCL2 IC50
Protocol: Biological Example 1: BCL-2 Competition Binding (Fluorescence Polarization) Assay
The fluorescence-labeled 23 amino acid peptide BH3 was purchased from CalBiochem ([…]). […] This binding assay was performed in 96-well plate and with each assay contained 15 and 30 nM of labeled peptide and purified BCL-2 protein (purchased from R&D Systems, Inc). The assay buffer contained 20 mM Hepes (pH 7.0), 50 mM KCl, 5 mM MgCl2, 20 mM Na2MoO4, 0.1 mg/ml Bovine Gamma Globulin and 0.01% NP40. Compounds were diluted in DMSO and added to the final assay with concentration range from 20 μM to 2 nM. The polarization degree (mP) value was determined by BioTek Synergy II with background subtraction after 3 hours of incubation at room temperature. IC50 was calculated using Prism software with sigmoidal dose-response curve fitting. ABT-737 was used as reference compound. Such assays, carried out with a range of doses of test compounds, allowed the determination of an approximate IC50 value.

[2] = fluorescein-labeled BH3 peptide 15 nM, purified BCL-2 protein 30 nM, 3 hours incubation at room temperature

Chain of BCL-2 (P10415 whole entry): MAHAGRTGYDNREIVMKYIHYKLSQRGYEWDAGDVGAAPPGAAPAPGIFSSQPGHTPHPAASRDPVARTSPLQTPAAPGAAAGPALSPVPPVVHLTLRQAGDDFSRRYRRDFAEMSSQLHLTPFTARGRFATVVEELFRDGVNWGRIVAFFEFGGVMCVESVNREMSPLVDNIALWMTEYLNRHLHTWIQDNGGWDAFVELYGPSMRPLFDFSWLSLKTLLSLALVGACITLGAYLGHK

Structure (SMILES) | IC50 [1] | IC50 (BCL-2; [2]) | IC50 (BCL-2)
CC1(C)CCC(CN2CCN(c3ccc(C(=O)NS(=O)(=O)c4ccc(NCCOCCOCCOCCNc5cccc6c5C(=O)N(C5CCC(=O)NC5=O)C6=O)c([N+](=O)[O-])c4)c(N4CCCOc5nc6[nH]ccc6cc54)c3)CC2)=C(c2ccc(Cl)cc2)C1 (stereo not shown) [Example 53, 4-(4-[[2-(4-chlorophenyl)-4,4-dimethylcyclohex-1-en-1-yl]methyl]piperazin-1-yl)-N-[4-(12-[[2-(2,6-dioxopiperidin-3-yl)-1,3-dioxoisoindol-4-yl]amino]-4,7,10-trioxa-1-azadodecan-1-yl)-3-nitrobenzenesulfonyl]-2-[14-oxa-2,4,10-triazatricyclo[7.5.0.0^[3,7]]tetradeca-1(9),2,5,7-tetraen-10-yl]benzamide] | 79 nM | 1.2 nM | 
COC1(C)CCC(c2ccc(Cl)cc2)=C(CN2CCN(c3ccc(C(=O)NS(=O)(=O)c4ccc(NC[C@H]5COCCO5)c([N+](=O)[O-])c4)c(N4CCCOc5nc6[nH]ccc6cc54)c3)CC2)C1 (stereo partly drawn) [Example 77, 4-(4-[[2-(4-chlorophenyl)-5-methoxy-5-methylcyclohex-1-en-1-yl]methyl]piperazin-1-yl)-N-(4-[[(2S)-1,4-dioxan-2-ylmethyl]amino]-3-nitrobenzenesulfonyl)-2-[14-oxa-2,4,10-triazatricyclo[7.5.0.0[3,7]]tetradeca-1(9),2,5,7-tetraen-10-yl]benzamide] | 0.8 nM | 0.08 nM | 
Cc1ncsc1-c1ccc(CNC(=O)[C@@H]2C[C@@H](O)CN2C(=O)[C@@H](NC(=O)CCOCCOCCOCCOCCNc2ccc(S(=O)(=O)NC(=O)c3ccc(N4CCN(CC5=C(c6ccc(Cl)cc6)CC(C)(C)CC5)CC4)cc3N3CCCOc4nc5[nH]ccc5cc43)cc2[N+](=O)[O-])C(C)(C)C)cc1 [Example 57, (2S,4R)-1-[(2S)-2-[1-[(4-[[4-(4-[[2-(4-chlorophenyl)-4,4-dimethylcyclohex-1-en-1-yl]methyl]piperazin-1-yl)-2-[14-oxa-2,4,10-triazatricyclo[7.5.0.0^[3,7]]tetradeca-1(9),2,5,7-tetraen-10-yl]phenyl]formamidosulfonyl]-2-nitrophenyl)amino]-3,6,9,12-tetraoxapentadecan-15-amido]-3,3-dimethylbutanoyl]-4-hydroxy-N-[[4-(4-methyl-1,3-thiazol-5-yl)phenyl]methyl]pyrrolidine-2-carboxamide] | 68 nM | 0.5 nM | 
CC1(C)CCC(CN2CCN(c3ccc(C(=O)NS(=O)(=O)c4ccc(NCC5CCOCC5)c([N+](=O)[O-])c4)c(N4CCOc5ccncc54)c3)CC2)=C(c2ccc(Cl)cc2)C1 [Example 34, 4-(4-[[2-(4-chlorophenyl)-4,4-dimethylcyclohex-1-en-1-yl]methyl]piperazin-1-yl)-N-[3-nitro-4-[(oxan-4-ylmethyl)amino]benzenesulfonyl]-2-[2H,3H-pyrido[4,3-b][1,4]oxazin-4-yl]benzamide] |  | 122 nM | 
Cn1c(=O)c2nc3[nH]ccc3cc2n1-c1cc(N2CCN(CC3=C(c4ccc(Cl)cc4)CC(C)(C)CC3)CC2)ccc1C(=O)NS(=O)(=O)c1ccc(NC[C@H]2COCCO2)c([N+](=O)[O-])c1 [Example 70, 4-(4-[[2-(4-chlorophenyl)-4,4-dimethylcyclohex-1-en-1-yl]methyl]piperazin-1-yl)-N-(4-[[(2S)-1,4-dioxan-2-ylmethyl]amino]-3-nitrobenzenesulfonyl)-2-[11-methyl-12-oxo-2,4,10,11-tetraazatricyclo[7.3.0.0^[3,7]]dodeca-1,3(7),5,8-tetraen-10-yl]benzamide] | 186 nM | 0.1 nM | 
CC1(C)CCC(CN2CCN(c3ccc(C(=O)NS(=O)(=O)c4ccc(NCC5CCOCC5)c([N+](=O)[O-])c4)c(N4CCC(c5ccccn5)Oc5nc6[nH]ccc6cc54)c3)CC2)=C(c2ccc(Cl)cc2)C1 (stereo not shown) [Example 40, 4-(4-[[2-(4-chlorophenyl)-4,4-dimethylcyclohex-1-en-1-yl]methyl]piperazin-1-yl)-N-[3-nitro-4-[(oxan-4-ylmethyl)amino]benzenesulfonyl]-2-[13-(pyridin-2-yl)-14-oxa-2,4,10-triazatricyclo[7.5.0.0^[3,7]]tetradeca-1(9),2,5,7-tetraen-10-yl]benzamide hydrochloride] | 5.6 nM |  | 
CC1(C)CCC(CN2CCN(c3ccc(C(=O)NS(=O)(=O)c4ccc(NC[C@H]5COCCO5)c([N+](=O)[O-])c4)c(-n4c5ccncc5c5nc6[nH]ccc6cc54)c3)CC2)=C(c2ccc(Cl)cc2)C1 [Example 71, 4-(4-[[2-(4-chlorophenyl)-4,4-dimethylcyclohex-1-en-1-yl]methyl]piperazin-1-yl)-N-(4-[[(2S)-1,4-dioxan-2-ylmethyl]amino]-3-nitrobenzenesulfonyl)-2-[4,8,14,16-tetraazatetracyclo[7.7.0.0^[2,7].0[11,15]]hexadeca-1(16),2(7),3,5,9,11(15),12-heptaen-8-yl]benzamide] | 192 nM | 0.6 nM | 
CC1(C)CCC(CN2CCN(c3ccc(C(=O)NS(=O)(=O)c4ccc(NC[C@H]5COCCO5)c([N+](=O)[O-])c4)c(N4CCCOc5nc6[nH]ccc6cc54)c3)CC2)=C(c2ccc(O)cc2)C1 [Example 38, N-(4-[[(2S)-1,4-dioxan-2-ylmethyl]amino]-3-nitrobenzenesulfonyl)-4-(4-[[2-(4-hydroxyphenyl)-4,4-dimethylcyclohex-1-en-1-yl]methyl]piperazin-1-yl)-2-[14-oxa-2,4,10-triazatricyclo[7.5.0.0^[3,7]]tetradeca-1(9),2,5,7-tetraen-10-yl]benzamide] |  |  | 47 nM
CC1(C)CCC(CN2CCN(c3ccc(C(=O)NS(=O)(=O)c4ccc(NCC5CCOCC5)c([N+](=O)[O-])c4)c(N4CC(F)(F)COc5nc6[nH]ccc6cc54)c3)CC2)=C(c2ccc(Cl)cc2)C1 [Example 36, 4-(4-[[2-(4-chlorophenyl)-4,4-dimethylcyclohex-1-en-1-yl]methyl]piperazin-1-yl)-2-[12,12-difluoro-14-oxa-2,4,10-triazatricyclo[7.5.0.0^[3,7]]tetradeca-1(9),2,5,7-tetraen-10-yl]-N-(3-nitro-4-[[(oxan-4-yl)methyl]amino]benzenesulfonyl)benzamide] | 0.95 nM |  | 
CC1(C)CCC(CN2CCN(c3ccc(C(=O)NS(=O)(=O)c4ccc(NCC5CCOCC5)c([N+](=O)[O-])c4)c(N4CCCSc5nc6[nH]ccc6cc54)c3)CC2)=C(c2ccc(Cl)cc2)C1 [Example 27, 4-(4-((4′-chloro-5,5-dimethyl-3,4,5,6-tetrahydro-[1,1′-biphenyl]-2-yl)methyl)piperazin-1-yl)-2-(3,4-dihydro-2H-pyrrolo[3′,2′:5,6]pyrido[2,3-b][1,4]thiazepin-1(7H)-yl)-N-((3-nitro-4-(((tetrahydro-2H-pyran-4-yl)methyl)amino)phenyl)sulfonyl)benzamide] | 21 nM | 0.3 nM | 
CC1(C)CCC(CN2CCN(c3ccc(C(=O)NS(=O)(=O)c4ccc(NCC5CCOCC5)c([N+](=O)[O-])c4)c(N4CCOc5ccccc54)c3)CC2)=C(c2ccc(Cl)cc2)C1 [Example 33, 4-(4-[[2-(4-chlorophenyl)-4,4-dimethylcyclohex-1-en-1-yl]methyl]piperazin-1-yl)-2-(3,4-dihydro-2H-1,4-benzoxazin-4-yl)-N-(3-nitro-4-[[(oxan-4-yl)methyl]amino]benzenesulfonyl)benzamide] |  | 42.6 nM | 
CC1(C)CCC(CN2CCN(c3ccc(C(=O)NS(=O)(=O)c4ccc(NCC5CCOCC5)c([N+](=O)[O-])c4)c(N4CCCOc5ncccc54)c3)CC2)=C(c2ccc(Cl)cc2)C1 [Example 35, 4-(4-[[2-(4-chlorophenyl)-4,4-dimethylcyclohex-1-en-1-yl]methyl]piperazin-1-yl)-N-[3-nitro-4-[(oxan-4-ylmethyl)amino]benzenesulfonyl]-2-[2H,3H,4H-pyrido[2,3-b][1,4]oxazepin-1-yl]benzamide] |  | 27 nM | 
CC1(C)CCC(CN2CCN(c3ccc(C(=O)NS(=O)(=O)c4ccc(NC[C@H]5COCCO5)c([N+](=O)[O-])c4)c(N4C(=O)COc5nc6[nH]ccc6cc54)c3)CC2)=C(c2ccc(Cl)cc2)C1 [Example 76, 4-(4-[[2-(4-chlorophenyl)-4,4-dimethylcyclohex-1-en-1-yl]methyl]piperazin-1-yl)-N-(4-[[(2S)-1,4-dioxan-2-ylmethyl]amino]-3-nitrobenzenesulfonyl)-2-[11-oxo-13-oxa-2,4,10-triazatricyclo[7.4.0.0[3,7]]trideca-1(9),2,5,7-tetraen-10-yl]benzamide] | 54 nM |  | 
